Measured values published in patent US10583387B2, “Guanidine compounds for carbon dioxide capture” (UT-Battelle, LLC, priority 2017, dated 2020).
Converted amounts (≈) assume the structure as drawn. “And” between values parts separate entries of the source, which are not always exact repeats. Equal entries are not always repeated.

Experiments:
[1] = cited from earlier work; for reaction rate of CO2 with sorbent: 25° C.
[2] = CO2 release and PyBIG regeneration by solar oven heating; type: physicochemical
Experimental: The CO2 release from the PyBIGH2(CO3)(H2O)4 crystals was conducted by solar heating with a solar oven. The oven consists of a vacuum-insulated borosilicate tube placed in the focal point of two adjustable parabolic reflectors. The temperature inside the tube was monitored with a thermocouple. The PyBIGH2(CO3)(H2O)4 samples 36.4-45.0 mg, 0.095-0.118 mmol) were loaded in 1 mL glass vials, which were placed inside the oven tube. The solar oven was then placed in the full sun and oriented to capture the maximum amount of sunlight. The temperature was ramped to the targeted values of 120° C., 130° C., 140° C., 150° C., or 160° C. as fast as possible (typically within 3 to 10 minutes), then held within ±2° C. by intermittently moving the oven out of the sun, or/and closing the reflectors. The samples were subsequently removed from the tube, allowed to cool to room temperature, and weighed to determine their mass loss. The resulting yellow solids were analyzed by FTIR to confirm the disappearance of the carbonate and water peaks. The solar regeneration experiments were repeated three times at each temperature, and the average values and standard deviations calculated.
However, considering that this transformation is highly endothermic, the possibility of using concentrated solar power to render the process more energy sustainable was explored. For the initial small-scale proof of concept, a solar oven was used to heat solid PyBIGH2(CO3)(H2O)4 samples (˜38 mg, 0.1 mmol) at five different temperatures ranging between 120 and 160° C. FTIR analyses corroborated the release of CO2, most evidently noticeable by the disappearance of the strong peak at 1361 cm^−1 corresponding to the stretching mode of the carbonate anion.

[3] = cited from earlier work
[4] = Thermogravimetric analysis (TGA-MS) and oven heating of the carbonate crystals; type: physicochemical
Description: Thermogravimetric analysis coupled with mass spectrometry (TGA-MS) provided a more quantitative picture of the decomposition process.

[5] = Reaction enthalpies of elementary steps in DAC with PyBIG (van't Hoff analyses); type: physicochemical; settings: for ΔH, PyBIGH2(CO3)(H2O)4 crystallization: equation 6
Description: It is instructive to compare the thermodynamics of the CO2 absorption by PyBIG with those of other sorbents used in DAC. For example, amine sorbents have absorption enthalpies in the range of 60-80 kJ/mol. […] Thus, the actual CO2 ‘binding’ by PyBIG, corresponding to equations 3-5 combined, has an enthalpy of −109.8 kJ/mol. This is essentially the same as the enthalpy of CO2 absorption by aqueous NaOH. The crystallization step (equation 6) then adds −47 kJ/mol, to make the overall absorption process a combined −156 kJ/mol, which is about twice as exothermic compared to the CO2 absorption by a typical amine sorbent. However, dissolution of PyBIG (equation 1), which is endothermic (+42.5 kJ/mol) and essentially offsets the exothermic crystallization in step 6, and proton transfer from water to the guanidine groups (equation 2), which is also endothermic (+43.6), brings the overall enthalpy for CO2 capture by PyBIG (equation 7) to −70.7 kJ/mol.

[6] = Differential scanning calorimetry (DSC), enthalpy of CO2 release; type: physicochemical
Description: In order to determine the enthalpy of CO2 release from PyBIGH2(CO3)(H2O)4, differential scanning calorimetry (DSC) was employed. DSC is a common technique used in thermal analysis of solids. […] Unfortunately, the extensive overlap between the peaks prevented a determination of the heats associated with each thermal event. Instead, all the peaks were integrated together to obtain the overall enthalpy of desorption for PyBIGH2(CO3)(H2O)4, which amounts to 223±4 kJ/mol. While the overall reaction is highly endothermic, it should be taken into account that, for each CO2 molecule released from PyBIGH2(CO3)(H2O)4, there are four molecules of hydration that are desorbed (plus a fifth water molecule that is a bi-product of the carbonate decomposition).
In order to determine the fraction of the reaction enthalpy corresponding to the CO2 release from the carbonate, anhydrous PyBIGH2(CO3) was prepared by overnight vacuum pumping of PyBIGH2(CO3)(H2O)4 at 30° C. […] The difference between the measured endotherms of PyBIGH2(CO3)(H2O)4 and PyBIGH2(CO3), of 148 kJ/mol, can be assigned to dehydration of the carbonate salt. This corresponds to an average of 37 kJ/mol per water of hydration, which is close to the enthalpy of vaporization for liquid water, of 40.65 kJ/mol. While a large fraction of the heat required to release the CO2 is spent on water evaporation, part of the waste heat could be recovered by process modifications that involve water condensation steps in which the resulting heat is collected and re-used via heat exchangers. Alternatively, vacuum-drying operations that typically require less energy than heat drying can be employed for dehydration of PyBIGH2(CO3)(H2O)4 prior to CO2 release. The use of renewable sources of energy, such as concentrated solar power, is also herein being considered to make the overall DAC process energy sustainable.

[7] = liquid; cited from earlier work
physchem = settings: pH 10, water, thermodynamic from solid
[8] = pKa by potentiometric titration; type: physicochemical; settings: 25° C., read-out: pKa of the two guanidinium groups
[9] = Accelerated aging of PyBIG (thermal stability); type: physicochemical
[10] = Equilibrium constant for the amino acid regeneration reaction (equation 11); type: physicochemical; settings: glycine sorbent, ideal conditions
Description: In addition to the enthalpies of CO2 absorption and release, another important thermodynamic parameter is the equilibrium constant for the amino acid regeneration reaction (equation 10), which defines the efficiency limit for sorbent regeneration.

[11] = Aqueous solubility and solubility product (variable-temperature solubility measurements); settings: saturated solution (~10 mM)

Question: Which “reaction rate of CO2 with sorbent” value [1] does the source give for `NCC(=O)O` [glycine] here?
Answer: The value was about 13.9 kM/s.

Question: With `[Na+].[OH-]` [NaOH] as the compound, how does the “flux of CO2 absorbed from air” value ([1]; 1 M solution) read?
Answer: The value was “around 30 μmol/m^2/s”.

Question: Which “CO2 release on solar heating” value ([2]; two hours at 160° C.) does the source give for `O=C([O-])[O-].[Ca+2]` [CaCO3, reference compound] here?
Answer: Its value is “no CO2 release was observed”.

Question: For `O=C(O)O` [HCO3^−, bicarbonate], which “ΔH, HCO3^− formation” value ([3]; equation 4) is on record?
Answer: The value was -12 kcal/mol.

Question: What does the source list for `N=C(N)NN=Cc1cccc(C=NNC(=N)N)n1.O.O.O.O.O=C(O)O` [PyBIGH2(CO3)(H2O)4]?
Answer: decomposition completion, isothermal TGA ([4]; 80° C., after 300 minutes): 77%; time to complete loss of carbon dioxide and water, isothermal TGA ([4]; 100° C.): 150 min; time to complete loss of carbon dioxide and water, isothermal TGA ([4]; 120° C.): 60 min; mass loss, temperature-ramped TGA ([4]; between 65 and 140° C.): 35.2%; mass loss of crystals heated in the oven ([4]; one hour at 120° C.): 34.3%; Weight loss ([2]; 120 ° C., 30 min): 32.3 ± 0.8%; Weight loss ([2]; 130 ° C., 15 min): 32.3 ± 0.8%; Weight loss ([2]; 140 ° C., 10 min): 33.2 ± 0.8%; Weight loss ([2]; 150 ° C., 5 min): 32.5 ± 0.8%; Weight loss ([2]; 160 ° C., 2 min): 33.8 ± 0.3%; ΔH, PyBIGH2(CO3)(H2O)4 crystallization [5]: -11.2 kcal/mol; average enthalpy per water of hydration [6]: 8.84 kcal/mol; overall enthalpy of desorption (DSC) ([6]; all peaks between 80 and 140° C. integrated): 53.3 ± 0.96 kcal/mol; enthalpy of dehydration of the carbonate salt ([6]; difference between endotherms of hydrated and anhydrous salt): 35.4 kcal/mol

Question: For `N=C(N)NN=Cc1cccc(C=NNC(=N)N)n1.O=C(O)O` [PyBIGH2(CO3)], which “enthalpy of the CO2 release (DSC)” value ([6]; anhydrous carbonate salt) is on record?
Answer: The value was 17.9 ± 1.4 kcal/mol.

Question: For `O=C(O)O` [CO3^2−, carbonate], which “ΔH, CO3^2− formation” value ([3]; equation 5) is on record?
Answer: The value was -9.66 kcal/mol.

Question: Which “reaction rate of CO2 with sorbent” value [1] does the source give for `CNCC(=O)O` [sarcosine] here?
Answer: The value was “ca. 18.6 kM/s”.

Question: Which enthalpy of vaporization [7] does the source give for `O` [water] here?
Answer: The enthalpy of vaporization was 9.716 kcal/mol.

Question: For `N=C(N)N/N=C/c1cccc(/C=N/NC(=N)N)n1` [PyBIG], which solubility (physchem) is on record?
Answer: The solubility was about 10 mM (≈ 2470 µg/mL).

Question: And the pKa [8]?
Answer: Its pKa is 7.6.

Question: And the “no decomposition up to (TGA-MS)” value ([4]; regenerated compound)?
Answer: The value was 190 °C.

Question: What about the “initial weight loss corresponding to CO2 and H2O loss” value ([9]; 120° C. in open air) of the same compound?
Answer: The value was 35.3%.

Question: And the “weight loss during accelerated aging (TGA)” value ([9]; 120° C. in open air for a week, after initial loss)?
Answer: The value was 0.5%.

Question: And the “log Kreg” value [10]?
Answer: The value was 3.5.

Question: What about the “ΔH, PyBIG dissolution” value ([5]; equation 1) of the same compound?
Answer: Its value is 10.2 kcal/mol.

Question: What about the “ΔH, PyBIG protonation” value ([5]; equation 2, sum of both protonation enthalpies plus twice water deprotonation) of the same compound?
Answer: Its value is 43.6 kJ/mol and 43.6^a kJ/mol.

Question: And the “ΔH, PyBIGH2(CO3)(H2O)4 crystallization” value [5]?
Answer: Its value is -11.2 kcal/mol.

Question: And the “enthalpy of CO2 'binding'” value ([5]; equations 3-5 combined)?
Answer: Its value is -26.24 kcal/mol.

Question: What about the “enthalpy of absorption incl. crystallization step” value ([5]; equations 3-6 combined) of the same compound?
Answer: The value was -37.3 kcal/mol.

Question: And the “pH of saturated solution” value [11]?
Answer: Its value is “about 10”.

Question: Which “ΔH, CO2 dissolution” value ([3]; equation 3) does the source give for `O=C=O` [CO2, carbon dioxide] here?
Answer: The value was -4.64 kcal/mol.
